Patent publication US12479843B2, “Spiro ring-containing quinazoline compounds” (WIGEN BIOMEDICINE TECHNOLOGY (SHANGHAI) CO., LTD., priority 2019, dated 2025)
pIC50: −log10 of the molar value.

Each molecule was assayed on H358 cells (assay: Antiproliferative activity against H358 cells (Cell Titer Glow, ultra-low attachment plate)). Settings: Homo sapiens, NCI-H358, 72 h, 96-well ultra-low attachment plate, three days after addition of compound, Cell Titer Glow.
Format: cell-based
Procedure: 2500 H358 cells were seeded in a 96-well ultra-low attachment plate (corning, 7007). After one day of growth, a serially diluted compound (a maximum concentration of 5 μM, 5-fold dilution, a total of five doses) was added. Three days after the addition of the compound, Cell Titer Glow (Promega, G9681) was added to evaluate pellet growth, and the IC50 value was calculated.

SMILES | pIC50
C=C(F)C(=O)N1CC2(CCN(c3nc(N4CC5(CCN(C)C5)C4)nc4c(OCC(F)(F)F)c(-c5c(C)ccc6[nH]ncc56)c(C5CC5)cc34)CC2)C1 [Compound 74] | > 6.52
C=CC(=O)N1CC2(CCN(c3nc(N4CC(N5C6CCC5CC6)C4)nc4c(OCC)c(-c5c(C)ccc6[nH]ncc56)c(C5CC5)cc34)CC2)C1 [Compound 332] | > 6.52
C=CC(=O)N1CC2(CCN(c3nc(N4CC(N5C6CCC5CC6)C4)nc4c(OCC(F)F)c(-c5c(C)ccc6[nH]ncc56)c(C5CC5)cc34)CC2)C1 [Compound 335] | > 6.52
C=C(F)C(=O)N1CC2(CCN(c3nc(OC4CCN(CCOC)CC4)nc4c(OCC(F)(F)F)c(-c5c(C)ccc6cc[nH]c(=O)c56)c(C5CC5)cc34)CC2)C1 [Compound 42] | 6.00 to 6.52
C=CC(=O)N1CC2(CCN(c3nc(N4CC5(CCN(CCCOC)CC5)C4)nc4c(OCC(F)(F)F)c(-c5c(C)ccc6[nH]ncc56)c(C5CC5)cc34)CC2)C1 [Compound 95] | > 6.52
C=CC(=O)N1CC2(CCN(c3nc(N4CC(N5C6CCC5CC6)C4)nc4c(OCC(F)(F)F)c(-c5c(C)ccc6[nH]ncc56)c(C5CC5)cc34)CC2)C1 [Compound 270] | > 6.52
C=CC(=O)N1CC2(CCN(c3nc(N4CC(N5CCC5)C4)nc4c(OCC(F)(F)F)c(-c5c(C)c(F)cc6[nH]ncc56)c(C=C)cc34)CC2)C1 [Compound 223] | > 6.52
C=CC(=O)N1CC2(CCN(c3nc(OC4CC5(CCN(C)CC5)C4)nc4c(OCC(F)(F)F)c(-c5c(C)ccc6[nH]ncc56)c(C5CC5)cc34)CC2)C1 [Compound 129] | > 6.52
C=CC(=O)N1CC2(CCN(c3nc(N4CC[C@@H](N5CC[C@@H](C)C5)C4)nc4c(OCC(F)(F)F)c(-c5c(C)ccc6[nH]ncc56)c(C5CC5)cc34)CC2)C1 [Compound 301] | > 6.52

More lines, now with the values ahead:

pIC50 | SMILES
6.00 to 6.52 | C=CC(=O)N1CC2(CCN(c3nc(N(C)CCN4CC(C#N)C4)nc4c(OCC(F)(F)F)c(-c5c(C)ccc6[nH]ncc56)c(C5CC5)cc34)CC2)C1 [Compound 231]
> 6.52 | C=CC(=O)N1CC2(CCN(c3nc(N4CC5(CC(N6CCC[C@H]6C)C5)C4)nc4c(OCC(F)(F)F)c(-c5c(C)ccc6[nH]ncc56)c(C5CC5)cc34)CC2)C1 [Compound 291]
> 6.52 | C=CC(=O)N1CC2(CCN(c3nc(N4CC(N5CCCC5)C4)nc4c(OCC(F)(F)F)c(-c5c(C)c(C)cc6[nH]ncc56)c(C=C)cc34)CC2)C1 [Compound 222]
> 6.52 | C=CC(=O)N1CC2(CCN(c3nc(N4CC(N5CCC(C)C5)C4)nc4c(OCC(F)(F)F)c(-c5c(C)c(C)cc6[nH]ncc56)c(C5CC5)cc34)CC2)C1 (stereo not shown) [Compound 324]
> 6.52 | C=C(F)C(=O)N1CC2(CCN(c3nc(N4CC5(CN(CCOC)C5)C4)nc4c(OCC(F)(F)F)c(-c5c(C)ccc6[nH]ncc56)c(C5CC5)cc34)CC2)C1 [Compound 72]
> 6.52 | C=CC(=O)N1CC2(CCN(c3nc(N4CC(N5CC[C@H](C)C5)C4)nc4c(OCC(F)(F)F)c(-c5c(C)c(F)cc6[nH]ncc56)c(C5CC5)cc34)CC2)C1 [Compound 327]
> 6.52 | C=C(F)C(=O)N1CC2(CCN(c3nc(N4CCN(C5COC5)CC4)nc4c(OCC(F)(F)F)c(-c5c(C)ccc6[nH]ncc56)c(C5CC5)cc34)CC2)C1 [Compound 153]
> 6.52 | C=C(F)C(=O)N1CC2(CCN(c3nc(N4CC5(CCN(CCOC)CC5)C4)nc4c(OCC(F)(F)F)c(-c5c(C)ccc6[nH]ncc56)c(C5CC5)cc34)CC2)C1 [Compound 92]
> 6.52 | C=C(F)C(=O)N1CC2(CCN(c3nc(OC4CCN(CCCOC)CC4)nc4c(OCC(F)(F)F)c(-c5c(C)ccc6[nH]ncc56)c(C5CC5)cc34)CC2)C1 [Compound 63]
> 6.52 | C=C(F)C(=O)N1CC2(CCN(c3nc(OC4CCN(CCOC)CC4)nc4c(OCC(F)F)c(-c5c(C)ccc6[nH]ncc56)c(C5CC5)cc34)CC2)C1 [Compound 3]
> 6.52 | C=CC(=O)N1CC2(CCN(c3nc(N4CC5(CC(N(C)C)C5)C4)nc4c(OCC(F)(F)F)c(-c5c(C)ccc6[nH]ncc56)c(C5CC5)cc34)CC2)C1 [Compound 286]

Each molecule was assayed on pERK level in H358 cells (assay: pERK and ERK protein content assay in H358 cells (ELISA)). Settings: Homo sapiens, NCI-H358, compound 1 μM, 24 h, pERK/ERK ratio compared with DMSO group, read-out: Inhibition rate (%) of pERK level.
Format: cell-based
Procedure: H358 cells were seeded in a 24-well plate. After one day of growth, a test compound (at a concentration of 1 μM) was added. After 24 h of action of the compound, the cells were lysed, and the cell lysate was transferred to a 96-well ELISA plate. The levels of pERK and ERK in the lysate were measured using an ELISA kit (abcam 176660). The ratio of pERK to ERK was calculated and compared with that of the DMSO group, and the percentage of inhibition of pERK activity by the compound was calculated.

SMILES | inhibition at 1 µM [%]
C=C(F)C(=O)N1CC2(CCN(c3nc(N4CC5(CCN(C)C5)C4)nc4c(OCC(F)(F)F)c(-c5c(C)ccc6[nH]ncc56)c(C5CC5)cc34)CC2)C1 [Compound 74] | > 90
C=CC(=O)N1CC2(CCN(c3nc(N4CC(N5C6CCC5CC6)C4)nc4c(OCC)c(-c5c(C)ccc6[nH]ncc56)c(C5CC5)cc34)CC2)C1 [Compound 332] | > 90
C=CC(=O)N1CC2(CCN(c3nc(N4CC(N5C6CCC5CC6)C4)nc4c(OCC(F)F)c(-c5c(C)ccc6[nH]ncc56)c(C5CC5)cc34)CC2)C1 [Compound 335] | > 90
C=CC(=O)N1CC2(CCN(c3nc(N(C)CCN4CC(C#N)C4)nc4c(OCC(F)(F)F)c(-c5c(C)ccc6[nH]ncc56)c(C5CC5)cc34)CC2)C1 [Compound 231] | 50 to 90
C=CC(=O)N1CC2(CCN(c3nc(N4CC5(CC(N6CCC[C@H]6C)C5)C4)nc4c(OCC(F)(F)F)c(-c5c(C)ccc6[nH]ncc56)c(C5CC5)cc34)CC2)C1 [Compound 291] | > 90
C=C(F)C(=O)N1CC2(CCN(c3nc(OC4CCN(CCOC)CC4)nc4c(OCC(F)(F)F)c(-c5c(C)ccc6cc[nH]c(=O)c56)c(C5CC5)cc34)CC2)C1 [Compound 42] | > 90
C=CC(=O)N1CC2(CCN(c3nc(N4CC(N5CCCC5)C4)nc4c(OCC(F)(F)F)c(-c5c(C)c(C)cc6[nH]ncc56)c(C=C)cc34)CC2)C1 [Compound 222] | > 90
C=CC(=O)N1CC2(CCN(c3nc(N4CC5(CCN(CCCOC)CC5)C4)nc4c(OCC(F)(F)F)c(-c5c(C)ccc6[nH]ncc56)c(C5CC5)cc34)CC2)C1 [Compound 95] | > 90
C=CC(=O)N1CC2(CCN(c3nc(N4CC(N5CCC(C)C5)C4)nc4c(OCC(F)(F)F)c(-c5c(C)c(C)cc6[nH]ncc56)c(C5CC5)cc34)CC2)C1 (stereo not shown) [Compound 324] | > 90
C=C(F)C(=O)N1CC2(CCN(c3nc(N4CC5(CN(CCOC)C5)C4)nc4c(OCC(F)(F)F)c(-c5c(C)ccc6[nH]ncc56)c(C5CC5)cc34)CC2)C1 [Compound 72] | > 90
C=CC(=O)N1CC2(CCN(c3nc(N4CC(N5C6CCC5CC6)C4)nc4c(OCC(F)(F)F)c(-c5c(C)ccc6[nH]ncc56)c(C5CC5)cc34)CC2)C1 [Compound 270] | > 90
C=CC(=O)N1CC2(CCN(c3nc(N4CC(N5CC[C@H](C)C5)C4)nc4c(OCC(F)(F)F)c(-c5c(C)c(F)cc6[nH]ncc56)c(C5CC5)cc34)CC2)C1 [Compound 327] | > 90
C=CC(=O)N1CC2(CCN(c3nc(N4CC(N5CCC5)C4)nc4c(OCC(F)(F)F)c(-c5c(C)c(F)cc6[nH]ncc56)c(C=C)cc34)CC2)C1 [Compound 223] | > 90
C=C(F)C(=O)N1CC2(CCN(c3nc(N4CCN(C5COC5)CC4)nc4c(OCC(F)(F)F)c(-c5c(C)ccc6[nH]ncc56)c(C5CC5)cc34)CC2)C1 [Compound 153] | > 90
C=C(F)C(=O)N1CC2(CCN(c3nc(N4CC5(CCN(CCOC)CC5)C4)nc4c(OCC(F)(F)F)c(-c5c(C)ccc6[nH]ncc56)c(C5CC5)cc34)CC2)C1 [Compound 92] | > 90
C=CC(=O)N1CC2(CCN(c3nc(OC4CC5(CCN(C)CC5)C4)nc4c(OCC(F)(F)F)c(-c5c(C)ccc6[nH]ncc56)c(C5CC5)cc34)CC2)C1 [Compound 129] | > 90
C=C(F)C(=O)N1CC2(CCN(c3nc(OC4CCN(CCCOC)CC4)nc4c(OCC(F)(F)F)c(-c5c(C)ccc6[nH]ncc56)c(C5CC5)cc34)CC2)C1 [Compound 63] | > 90
C=C(F)C(=O)N1CC2(CCN(c3nc(OC4CCN(CCOC)CC4)nc4c(OCC(F)F)c(-c5c(C)ccc6[nH]ncc56)c(C5CC5)cc34)CC2)C1 [Compound 3] | > 90
C=CC(=O)N1CC2(CCN(c3nc(N4CC[C@@H](N5CC[C@@H](C)C5)C4)nc4c(OCC(F)(F)F)c(-c5c(C)ccc6[nH]ncc56)c(C5CC5)cc34)CC2)C1 [Compound 301] | > 90
C=CC(=O)N1CC2(CCN(c3nc(N4CC5(CC(N(C)C)C5)C4)nc4c(OCC(F)(F)F)c(-c5c(C)ccc6[nH]ncc56)c(C5CC5)cc34)CC2)C1 [Compound 286] | > 90
